Where a SMILES comes first, the peptide text is derived from it.
Key:
[1] = target: T1, EGFR:HER2 heterodimer in SKBR-3 cells (Homo sapiens, UniProt P04626); test: Proximity ligation assay (PLA); format: cell-based; conditions: 0.5 and 1 µM
T1 construct: we probed for HER2:EGFR dimers with PLA probes in SKBR-3 cells; host or cells: SKBR-3
Procedure: (§1) Proximity ligation assay was performed as described previously. […] Fixed cells were used for PLA assay. Cells were incubated with primary antibodies for 24 h and washed, and secondary antibodies PLA+ and PLA− were added. After incubation and washing, PLA detection reagent was added, and the cells were covered with a glass plate after mounting medium was added. Slides were viewed using an inverted microscope and a multiphoton microscope. Images were obtained at 40 and 60X.

[2] = target: T2, HER2:HER3 heterodimer in SKBR-3 cells (Homo sapiens, UniProt P04626); test: Proximity ligation assay (PLA); format: cell-based; conditions: 0.5 and 1 µM
T2 construct: indicating HER2:HER3 dimerization in SKBR-3 cells; host or cells: SKBR-3
Procedure: as §1

SKBR-3 cells = test: TUNEL assay; format: cell-based; conditions: 5 and 10 µM
Procedure: Ten thousand SKBR-3 cells were added to each well of Lab-Tek® 8-chamber slides and incubated overnight for cell attachment. […] Cells were washed twice with cold PBS. Cell fixation was achieved using 10% buffered formalin followed by permeabilization of membranes using 0.2% Triton X-100 in PBS at room temperature. 100 µL of rTdT reaction mix containing biotinylated nucleotide mix was added. The slide was placed in a humidity chamber and incubated for 60 min at 37°C. With the addition of dilute saline-sodium citrate (SSC) solution (20X provided with the kit diluted to 2X), the reaction was stopped. Three PBS washes were made to ensure the removal of remaining unincorporated biotinylated nucleotides on the slide. Treatment with 0.3% hydrogen peroxide was done to block the endogenous peroxidases in the cells. The slide was incubated for 30 min at room temperature with dilute streptavidin HRP solution (1:500 in PBS). Diaminobenzidine (DAB) was added to stain the slide. After drying, DAPI was used to counterstain the nuclei, and images were obtained using a Nikon Eclipse TS100. The number of cells that had undergone apoptosis was counted and quantified.

[3] = target: T3, HER2:HER3 heterodimerization in tumor sections (Homo sapiens, UniProt P04626); test: PLA on xenograft tumor sections; format: in vivo, athymic nude mice
T3 construct: from tissue; host or cells: BT-474 xenograft tumours grown in athymic nude mice
T3 sequence (P04626 23-1255, one chain of several): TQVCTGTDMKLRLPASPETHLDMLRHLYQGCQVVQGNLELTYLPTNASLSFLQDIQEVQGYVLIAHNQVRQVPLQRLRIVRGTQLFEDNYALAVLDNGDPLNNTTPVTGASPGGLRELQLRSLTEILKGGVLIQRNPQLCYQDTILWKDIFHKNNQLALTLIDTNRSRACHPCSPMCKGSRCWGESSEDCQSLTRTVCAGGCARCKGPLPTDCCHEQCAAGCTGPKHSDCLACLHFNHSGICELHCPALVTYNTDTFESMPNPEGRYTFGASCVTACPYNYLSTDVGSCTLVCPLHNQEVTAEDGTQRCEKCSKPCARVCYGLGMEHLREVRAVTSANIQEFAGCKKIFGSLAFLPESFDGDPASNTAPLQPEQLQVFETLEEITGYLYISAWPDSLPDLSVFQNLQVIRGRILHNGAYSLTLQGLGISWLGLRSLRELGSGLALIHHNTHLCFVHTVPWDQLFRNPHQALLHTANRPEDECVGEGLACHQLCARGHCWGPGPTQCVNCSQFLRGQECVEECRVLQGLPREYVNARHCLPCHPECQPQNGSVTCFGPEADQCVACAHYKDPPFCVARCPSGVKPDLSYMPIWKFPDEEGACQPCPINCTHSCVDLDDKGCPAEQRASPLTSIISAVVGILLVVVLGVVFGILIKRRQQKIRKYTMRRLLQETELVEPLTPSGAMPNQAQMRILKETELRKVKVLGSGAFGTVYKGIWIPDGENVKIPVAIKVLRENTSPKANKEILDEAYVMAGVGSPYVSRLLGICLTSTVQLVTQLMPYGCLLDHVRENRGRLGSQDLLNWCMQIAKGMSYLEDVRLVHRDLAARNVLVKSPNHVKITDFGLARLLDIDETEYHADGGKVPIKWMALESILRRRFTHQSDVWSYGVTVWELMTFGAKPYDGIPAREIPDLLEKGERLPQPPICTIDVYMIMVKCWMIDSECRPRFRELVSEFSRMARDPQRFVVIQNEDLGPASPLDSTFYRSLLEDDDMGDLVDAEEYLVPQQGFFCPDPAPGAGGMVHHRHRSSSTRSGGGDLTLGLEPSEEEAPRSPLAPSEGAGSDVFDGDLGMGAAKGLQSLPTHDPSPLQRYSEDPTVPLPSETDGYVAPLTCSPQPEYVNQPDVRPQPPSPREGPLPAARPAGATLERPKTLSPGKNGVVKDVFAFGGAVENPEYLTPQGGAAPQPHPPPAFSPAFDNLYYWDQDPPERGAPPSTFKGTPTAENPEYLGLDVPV
Procedure: (§2) Western blot and PLA assay were carried out on tumor sections as described before. Immunoblot analysis was performed to evaluate the levels of total HER2 and phosphorylated HER2. Tumor sections were deparaffinized using xylene and rehydrated with decreasing concentrations of ethanol. Antigen retrieval on the microsections of the breast tumors was done in a steaming sodium citrate buffer (10 mM, 0.05% Tween-20, pH 6.0) for 5 min. The tumor sections were then used to analyze inhibition of HER2:HER3 dimerization using PLA.

SKOV-3 cells = conditions: read-out: IC50 SKOV-3(+); HER2-overexpressing ovarian cancer cells, 72 h
Procedure: Cellular assays were performed using BT-474, SKBR-3, Calu-3, MCF-7, and MCF-10A cells (ATCC). Antiproliferative activity was measured by CellTiter-Glo®, [49] a luminescence-based cell viability assay. In a 96-well plate, 1 × 10^4 cells/well were seeded and incubated overnight at 37°C and 5% CO2. Stock solutions of peptidomimetics were prepared by dissolving 1.5 mg/mL of compounds in DMSO. Stock solution of the compounds were diluted using the serum-free medium to prepare solutions of different concentrations of compounds. Compounds in the medium were added to the wells in triplicate and incubated for 72 h. As controls, cells treated with 1% sodium dodecyl sulfate and 1% dimethyl sulfoxide were used. At the end of the experiment, CellTiter-Glo® reagent was added, and luminescence was measured by a plate reader. A dose response curve was generated using luminescence vs concentration of compounds and IC50 values were obtained using Prism® (GraphPad Software, La Jolla, CA). Experiments were repeated at least three times to obtain standard deviation values.

[4] = tested on: HER2 phosphorylation in tumor samples; test: Western blot of xenograft tumor samples; format: in vivo, athymic nude mice; conditions: treated tumors compared to control
Procedure: as §2

[5] = target: T4, HER2 ECD (domains I to IV) (Homo sapiens, UniProt P04626); test: Surface plasmon resonance analysis; format: binding
T4 construct: Extracellular domains of proteins HER2, EGFR, HER3, and HER4 purchased from Leinco Technologies; purchased Leinco Technologies (St. Louis, MO)
T4 sequence (P04626 23-652 limits assumed): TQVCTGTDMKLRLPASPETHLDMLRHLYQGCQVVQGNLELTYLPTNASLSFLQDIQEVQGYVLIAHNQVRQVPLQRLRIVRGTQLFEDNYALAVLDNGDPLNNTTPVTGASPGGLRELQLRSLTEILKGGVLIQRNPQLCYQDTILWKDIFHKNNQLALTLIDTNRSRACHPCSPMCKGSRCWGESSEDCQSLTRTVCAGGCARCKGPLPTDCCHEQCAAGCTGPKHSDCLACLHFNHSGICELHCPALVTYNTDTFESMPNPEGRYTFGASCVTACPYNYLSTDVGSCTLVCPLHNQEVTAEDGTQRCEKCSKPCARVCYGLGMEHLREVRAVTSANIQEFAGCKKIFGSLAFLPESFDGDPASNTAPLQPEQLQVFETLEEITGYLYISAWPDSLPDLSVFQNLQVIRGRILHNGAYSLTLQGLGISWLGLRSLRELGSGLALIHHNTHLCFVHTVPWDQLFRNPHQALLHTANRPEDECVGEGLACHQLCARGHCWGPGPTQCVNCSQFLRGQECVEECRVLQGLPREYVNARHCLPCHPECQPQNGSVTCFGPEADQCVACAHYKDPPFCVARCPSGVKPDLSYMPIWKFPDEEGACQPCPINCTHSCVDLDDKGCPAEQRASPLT
Procedure: (§3) Surface plasmon resonance analysis was performed using GE X100. Extracellular domains of proteins HER2, EGFR, HER3, and HER4 purchased from Leinco Technologies (St. Louis, MO). […] Compound 18 and controls were used as analytes. Compound 18 at different concentrations (0 to 200 µM) was passed through an SPR chip, and binding kinetics were analyzed for each of the EGFR bindings. A blank subtracted sensorgram for compound 18 was represented.

HER3 = target: T5, HER3 (Homo sapiens, UniProt P21860); test: Surface plasmon resonance analysis; format: binding; conditions: data not shown
T5 construct: Extracellular domains of proteins HER2, EGFR, HER3, and HER4 purchased from Leinco Technologies; purchased Leinco Technologies (St. Louis, MO)
T5 sequence (P21860 20-643 limits assumed): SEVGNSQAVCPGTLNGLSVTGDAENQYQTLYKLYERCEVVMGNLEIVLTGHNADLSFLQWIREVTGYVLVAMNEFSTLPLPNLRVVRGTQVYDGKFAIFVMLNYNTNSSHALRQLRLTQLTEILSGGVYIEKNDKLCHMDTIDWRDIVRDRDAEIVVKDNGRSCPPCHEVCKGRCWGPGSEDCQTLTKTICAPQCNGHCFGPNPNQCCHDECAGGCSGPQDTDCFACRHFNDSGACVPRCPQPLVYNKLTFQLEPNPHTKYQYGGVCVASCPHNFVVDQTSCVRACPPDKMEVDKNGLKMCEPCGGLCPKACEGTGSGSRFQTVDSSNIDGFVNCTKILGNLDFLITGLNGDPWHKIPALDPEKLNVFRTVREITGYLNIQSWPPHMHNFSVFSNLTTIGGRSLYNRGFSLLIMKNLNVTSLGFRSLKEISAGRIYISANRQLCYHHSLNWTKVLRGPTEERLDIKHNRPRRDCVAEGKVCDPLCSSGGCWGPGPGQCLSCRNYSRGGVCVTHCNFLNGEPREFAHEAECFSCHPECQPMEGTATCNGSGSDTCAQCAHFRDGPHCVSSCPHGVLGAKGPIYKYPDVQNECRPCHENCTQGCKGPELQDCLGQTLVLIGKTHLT
Procedure: as §3

EGFR = target: T6, EGFR (Homo sapiens, UniProt P00533); test: Surface plasmon resonance analysis; format: binding; conditions: data not shown
T6 construct: Extracellular domains of proteins HER2, EGFR, HER3, and HER4 purchased from Leinco Technologies; purchased Leinco Technologies (St. Louis, MO)
T6 sequence (P00533 25-645 limits assumed): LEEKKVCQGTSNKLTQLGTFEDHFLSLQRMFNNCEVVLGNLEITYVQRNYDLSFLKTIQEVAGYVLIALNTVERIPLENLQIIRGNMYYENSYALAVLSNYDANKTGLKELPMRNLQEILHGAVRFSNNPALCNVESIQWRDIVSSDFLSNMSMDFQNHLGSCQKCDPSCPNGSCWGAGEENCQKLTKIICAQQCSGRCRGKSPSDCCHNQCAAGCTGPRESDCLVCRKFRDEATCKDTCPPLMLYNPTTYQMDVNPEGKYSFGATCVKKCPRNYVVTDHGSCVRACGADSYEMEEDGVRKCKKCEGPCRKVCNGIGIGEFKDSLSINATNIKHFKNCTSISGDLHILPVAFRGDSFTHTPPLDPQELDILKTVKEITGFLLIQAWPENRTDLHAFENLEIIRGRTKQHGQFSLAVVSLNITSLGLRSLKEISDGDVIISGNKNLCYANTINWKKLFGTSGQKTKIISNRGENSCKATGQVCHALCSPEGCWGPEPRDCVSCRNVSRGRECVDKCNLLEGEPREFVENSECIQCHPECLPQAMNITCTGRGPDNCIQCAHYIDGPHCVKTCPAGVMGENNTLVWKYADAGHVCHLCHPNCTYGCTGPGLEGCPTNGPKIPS
Procedure: as §3

domain IV of HER2 = domain IV of HER2 (Homo sapiens, UniProt P04626); test: Surface plasmon resonance analysis; format: binding; conditions: protein immobilized on CM5 chip
Procedure: as §3

HER4 = target: T7, HER4 (Homo sapiens, UniProt Q15303); test: Surface plasmon resonance analysis; format: binding; conditions: data not shown
T7 construct: Extracellular domains of proteins HER2, EGFR, HER3, and HER4 purchased from Leinco Technologies; purchased Leinco Technologies (St. Louis, MO)
T7 sequence (Q15303 26-651 limits assumed): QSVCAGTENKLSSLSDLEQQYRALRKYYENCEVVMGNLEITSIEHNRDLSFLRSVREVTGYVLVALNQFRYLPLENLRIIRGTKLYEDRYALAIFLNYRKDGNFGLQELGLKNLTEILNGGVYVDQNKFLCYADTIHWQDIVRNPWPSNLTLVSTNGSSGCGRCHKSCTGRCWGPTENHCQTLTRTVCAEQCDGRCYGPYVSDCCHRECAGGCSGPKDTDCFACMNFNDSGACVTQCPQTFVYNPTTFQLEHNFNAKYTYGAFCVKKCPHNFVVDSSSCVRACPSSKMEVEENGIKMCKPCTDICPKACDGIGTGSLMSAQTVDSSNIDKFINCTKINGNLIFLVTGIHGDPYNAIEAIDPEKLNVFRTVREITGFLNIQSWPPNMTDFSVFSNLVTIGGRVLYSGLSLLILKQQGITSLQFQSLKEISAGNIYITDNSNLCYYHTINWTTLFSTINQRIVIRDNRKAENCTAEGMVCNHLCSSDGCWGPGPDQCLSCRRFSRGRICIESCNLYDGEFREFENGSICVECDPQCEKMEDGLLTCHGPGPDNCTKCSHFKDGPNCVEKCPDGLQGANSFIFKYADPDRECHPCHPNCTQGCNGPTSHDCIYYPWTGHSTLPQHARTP
Procedure: as §3

BT-474 breast tumors = test: Xenograft model of breast cancer; format: in vivo, athymic nude mice; conditions: BT-474 xenograft, 19 days; 18 and 9 4 mg/kg twice a week intratumor; lapatinib 10 mg/kg once a week i.p.
Procedure: All animals were handled according to the approved protocol from IACUC at the University of Louisiana at Monroe. Athymic nude mice (Foxn1nu/Foxn1+, female, 4–5 weeks) were purchased from Harlan Laboratories (Indianapolis, IN) and maintained in the ULM School of Pharmacy vivarium. After acclimatization of animals to the local environment, estrogen (17β-estradiol) pellets (0.72 mg, 90-day release) were implanted subcutaneously in the mice, under anesthesia. Tumors were induced in mice as described previously. Orthotopic injection of about three-million BT-474 cells suspended in the serum-free RPMI-1640 medium was done at the second left mammary fat pad. Mice were observed every day for tumor formation, and the tumor diameter was measured with calipers, and the tumor volume was calculated. When a tumor diameter of 3 mm was achieved, mice were randomly assigned to four groups of six. These groups contain negative control (vehicle control), positive control (lapatinib), and two treatment groups (compound 9 and 18). The mice were treated for 19 days. Compound 18 was administered near the base of the tumor at a dose of 4 mg/kg twice a week. Control groups received intratumor saline injections twice a week, and lapatinib was administered at 10 mg/kg once a week by intraperitoneal injection. The marker to end the experiments was based on tumor doubling time rather than tumor volume. Since tumor doubling time was 4 times in 19 days, experiments were stopped on the 19th day. Tumor-bearing mice were sacrificed, and three tumors per group were harvested and maintained at –80°C and the remaining three tumors were fixed in paraffin blocks. Microsections (5 µm) of paraffin fixed tumors were stained with hemotoxylin and eosin (H&E) and observed for necrosis by a pathologist. All data are presented as the mean ± SE. Statistical differences were evaluated by Mann-Whitney U test as well as one-way ANOVA analysis of data from different groups, and the criterion for statistical significance was p < 0.05.

T1 sequence (P04626 23-1255, one chain of several): as the sequence (P04626 23-1255, one chain of several) above

In the case of `N=C(N)NCCC[C@@H]1NC(=O)[C@H]2CCCN2C(=O)[C@@H]2CCCN2C(=O)[C@H](CCCNC(=N)N)NC(=O)C[C@H](c2cccc3ccccc23)NC(=O)[C@H](Cc2ccccc2)NC(=O)[C@H](CC(=O)O)NC(=O)[C@H](CC(=O)O)NC(=O)[C@H](Cc2ccccc2)NC(=O)C[C@H](c2cccc3ccccc23)NC1=O` [compound 18, Cyclo(1,10)P^1p^2R^3(R-Anapa)^4F^5D^6D^7F^8(R-Anapa)^9R^10] (HELM PEPTIDE1{P.[dP].R.[O=C(C[C@@H](N[*:1])c1cccc2ccccc12)[*:2]].F.D.D.F.[O=C(C[C@@H](N[*:1])c1cccc2ccccc12)[*:2]].R}$PEPTIDE1,PEPTIDE1,1:R1-10:R2$$$V2.0), the “Inhibition of EGFR:HER2 heterodimerization (PLA)” value [1] is reported as “inhibits both EGFR:HER2 and HER2:HER3 dimerization”, the “Inhibition of HER2:HER3 heterodimerization (PLA)” value [2] is reported as “inhibits heterodimerization in a concentration-dependent manner” and the “Apoptosis (TUNEL staining)” value (SKBR-3 cells) is reported as “positive staining for apoptosis”. The “HER2:HER3 heterodimerization in tumor sections (PLA)” value [3] was “diminished red fluorescence signals”, the IC50 (SKOV-3 cells) was 853 ± 102 nM and the “HER2 phosphorylation in tumor samples (Western blot)” value [4] was “decrease in HER2 phosphorylation”. For the same molecule, the koff ([5]; SPR, 1:1 binding Langmuir fit) was 5.97 s⁻¹, the kon ([5]; SPR, 1:1 binding Langmuir fit) was 4.76e+07 M⁻¹ s⁻¹ and the Kd ([5]; calculated from kon and koff) was 125 nM. For the same molecule, the “SPR binding to HER2 ECD” value ([5]; protein immobilized on CM5 chip, substance as analyte) was “concentration-dependent binding”, the “SPR binding to HER3” value (HER3) was “did not indicate any significant change in response” and the “SPR binding to EGFR” value (EGFR) was “did not indicate any significant change in response”. For the same molecule, the “SPR binding to HER2 domain IV” value (domain IV of HER2) was “concentration-dependent binding”, the “SPR binding to HER4” value (HER4) was “did not indicate any significant change in response” and the “Tumor growth versus vehicle” value (BT-474 breast tumors) was “delay in tumor growth and tumor size”.
